Reference: US20160016986A1, “STABILIZED NUCLEOTIDES FOR MEDICAL TREATMENT” (priority 2014, published 2016)
pEC50: −log10 of the molar value. Read-outs that look alike come from different tables or passages of the source.

Assays:
HCV genotype 1, 2 or 3 = conditions: once-daily 300 mg for seven days; cited from earlier work
[1] = patients receiving high dosages of VX-135; cited from earlier work
HCV genotype 1 = conditions: cited from earlier work
HCV = conditions: several large clinical trials; cited from earlier work
HCV replicon replication = test: Inhibition of HCV replication (HCV replicon in Huh-luc/neo cells; extrapolated to primary human hepatocytes); assay type: cell-based
[2] = Half-life of the active triphosphate in human hepatocytes; assay type: in vitro ADME; conditions: plated in 12-well format
Method: Human hepatocyte cells used for half-life determinations were human liver hepatocyte 12-well format cells and were seeded at 0.67 million cells per well. Canine hepatocyte cells used for half-life determinations were beagle dog liver hepatocyte 12-well format cells and were seeded at 0.67 million cells per well. Monkey hepatocyte cells used for half-life determinations were Cynomolgus monkey liver hepatocyte 12-well format cells, and were seeded at 0.9 million cells per well. Rat hepatocyte cells for half-life determinations were Sprague-Dawley (SD) rat liver hepatocyte 12-well format cells, and were seeded at 0.67 million cells per well. All cells were obtained from Life Technologies.

human hepatocytes = test: Determination of nucleoside concentrations (dephosphorylated 5′-OH nucleoside) in human hepatocyte media and cell extract; assay type: in vitro ADME; conditions: 20 μM Formula VII vs Formula II, 24 hours
Method: At 24 hours, media was removed and frozen. Cells were washed twice with cold PBS.
Supernatants were removed and analyzed by LC-MS/MS. […] Samples were centrifuged at 3000 rpm for 15 minutes. Supernatants were removed and analyzed by LC-MS/MS.
Hepatocyte media incubates were removed from the freezer, defrosted and vortexed. […] Supernatants were removed and analyzed by LC-MS/MS. […] Supernatants were removed and analyzed by LC-MS/MS.

human liver hepatocytes = test: Triphosphate levels in human hepatocytes after incubation with prodrug; conditions: incubation with 5 μM prodrug over 48 hours
Method: Fresh liver hepatocytes were received plated in a 12-well or 6-well format (Life Technologies, Catalogue #HMFN12 and #HMNF06). Upon receipt, shipping media was removed immediately and replaced with 1 mL or 2 mL pre-warmed culture medium (Supplemented modified Chee's Media; Xenotech LLC, Catalogue# K2300) for 12- and 6-well formats, respectively. Cells were acclimated overnight at 37° C. with 5% CO2 atmosphere. […] Stability of the compounds in the absence of cells was also assayed. […] Cells were washed twice with cold PBS. 70% cold Methanol (0.75 mL or 1.5 mL, for 12- and 6-well formats, respectively) containing Formula X as an internal standard was added to each well and cells were gently removed from the plate by scraping. The recovered cells suspended in the methanol solution were aspirated into a vial and frozen at −80° C.
Cell solutions were extracted overnight at −80° C. in 70% methanol, removed from the freezer, defrosted and vortexed. Tubes were centrifuged at 3000 rpm for 15 minutes at 4° C. Supernatants were removed and analyzed by LC-MS/MS. […] Supernatants were removed and analyzed by LC-MS/MS. […] The analytes were quantified using linear regression of calibration standard values with instrument response. […]
The general methods of Example 33 were used to determine compound concentrations. […] The results were plotted and the linear regression was calculated using Microsoft Excel.

[3] = human, in vivo; cited from earlier work
[4] = beagle (dog), Sprague-Dawley (rat), cynomolgus monkey, range over human, dog, monkey and rat hepatocytes, read-out: half-life of active triphosphate in hepatocytes
[5] = 6 well plate (2 ml), 1.7 million cells per well
[6] = 12 well plate (1 ml), 0.67 million cells per well

SMILES: CC(C)OC(=O)[C@@H](C)N[P@@](=O)(OC[C@H]1O[C@@H](n2ccc(=O)[nH]c2=O)[C@](C)(Cl)[C@@H]1O)Oc1ccccc1 [IDX21437]
- mean maximum reduction in viral load (HCV genotype 1, 2 or 3): 4.2-4.3 log 10 IU/mL

SMILES: CC(C)OC(=O)[C@H](C)NP(=S)(OC[C@H]1O[C@@H](n2ccc(=O)[nH]c2=O)[C@](C)(O)[C@@H]1O)Oc1ccccc1 (single isomer, unassigned) [VX-135]
- clinical toxicity finding [1]: liver toxicity
- completion of treatment rate (SVR12) (HCV genotype 1; 200 mg VX-135 in combination with daclatasvir, 12 weeks of treatment): 91%
- sustained viral response rate four weeks after completion of treatment (SVR4) (HCV genotype 1; 200 mg VX-135 in combination with daclatasvir, treatment-naïve genotype 1, intent-to-treat): 83%
- adverse event (HCV genotype 1; VX-135 in combination with daclatasvir, one patient): serious adverse event of vomiting/nausea

SMILES: CC(C)OC(=O)[C@H](C)N[P@](=O)(OC[C@H]1O[C@@H](n2ccc(=O)[nH]c2=O)C(C)(F)C1O)Oc1ccccc1 (some centres unmarked) [Sofosbuvir]
- sustained viral response (SVR) of twelve weeks, share of trial participants (HCV): 50-90%

SMILES: [2H]c1cn([C@@H]2O[C@H](C([2H])([2H])O[P@@](=O)(N[C@@H](C)C(=O)OC(C)C)Oc3ccccc3)[C@@H](O)[C@@]2(C)O)c(=O)[nH]c1=O [Formula II, (S)-isopropyl 2-(((S)-(((2R,3R,4R,5R)-5-(5-deutero-2,4-dioxo-3,4-dihydropyrimidin-1(2H)-yl)-3,4-dihydroxy-4-methyltetrahydrofuran-2-yl)dideuteromethoxy)(phenoxy)phosphoryl)amino)propanoate]
- pEC50 (HCV replicon replication; Hepatitis C virus, Hepatocyte, read-out: predicted EC50 in primary human hepatocytes): 8.00 to 8.20

SMILES: [2H]c1cn(C2OC(C([2H])([2H])OP(=O)(O)OP(=O)(O)OP(=O)(O)O)[C@@H](O)[C@@]2(C)O)c(=O)[nH]c1=O (some centres unmarked) [Formula IV]
- half-life [2, 4]: 10 to 30 h
- half-life ([2]; human, human hepatocytes, read-out: half-life of triphosphate): > 24 h

SMILES: C[C@@]1(O)[C@H](O)[C@@H](CO)O[C@H]1n1ccc(=O)[nH]c1=O [Formula IX, 2′-C-methyluridine]
- higher concentration of undeuterated dephosphorylated 2′-methyl uridine compared to 5′-deuterated form (Formula VI), cell extract (intracellular) (human hepatocytes; [5]): 2.8 fold
- higher concentration of undeuterated dephosphorylated 2′-methyl uridine compared to 5′-deuterated form (Formula VI), first value, printed as cell extract (human hepatocytes; [5]): 1.5 fold
- higher concentration of undeuterated dephosphorylated 2′-methyl uridine (Formula IX) compared to 5′-deuterated form (Formula VI), cell extract (intracellular) (human hepatocytes; [6]): 2.9 fold
- higher concentration of undeuterated dephosphorylated 2′-methyl uridine (Formula IX) compared to 5′-deuterated form (Formula VI), media (extracellular) (human hepatocytes; [6]): 1.9 fold

SMILES: C[C@@]1(F)[C@H](O)[C@@H](COP(=O)(O)OP(=O)(O)OP(=O)(O)O)O[C@H]1n1ccc(=O)[nH]c1=O [GS-7977-TP]
- time of peak triphosphate levels in human hepatocytes (human liver hepatocytes): 24 h
- half-life [2, 4]: 8 to 23 h

SMILES: COc1nc(N)nc2c1ncn2[C@@H]1O[C@H](COP(=O)(N[C@@H](C)C(=O)OCC(C)(C)C)Oc2cccc3ccccc23)[C@@H](O)[C@@]1(C)O (some centres unmarked) [BMS-986094]
- clinical safety outcome [3]: death of a patient due to heart failure

SMILES: [2H]c1cn(C2OC(C([2H])([2H])O)[C@@H](O)[C@@]2(C)O)c(=O)[nH]c1=O (some centres unmarked) [Formula VI, 5′-deuterated 2′-C-methyluridine]
- activity against hepatitis C viral replication (HCV replicon replication; statement in description, poor substrate for nucleoside monophosphate kinase): little activity
